Consider one compound from patent publication US9255257B2, “PmST1 mutants for chemoenzymatic synthesis of sialyl lewis X compounds” (THE REGENTS OF THE UNIVERSITY OF CALIFORNIA, priority 2011, dated 2016).

In assay [1] the target is Pasteurella multocida PmST1 double mutant E271F/R313Y of SEQ ID NO: 13 (E247F/R289Y of Δ24PmST1, SEQ ID NO: 11) (Pasteurella multocida, UniProt Q15KI8, E271F/R313Y). Nature of the assay: α2-3-sialidase activity, Neu5Acα2-3LacβMU as substrate. The format is biochemical. Conditions: apparent, MES pH 5.5, 37° C., 20 min. As for the experimental part:
(§1) Site-directed mutagenesis. Site-directed mutagenesis was carried out using the QuikChange multi-site-directed mutagenesis kit from Stratagene according to the manufacturer's protocol. The primers used were 5′-[…] -3′ (SEQ ID NO:32) for E271F and 5′-[…]-3′ (SEQ ID NO:33) for R313Y. The sites of mutations are underlined.
(§2) Protein Expression and Purification. The plasmids containing the mutant genes were transformed into E. coli BL21 (DE3). The E. coli cells were cultured in LB-rich media (10 g L^−1 tryptone, 5 g L^−1 yeast extract, and 10 g L^−1 NaCl) supplemented with ampicillin (100 μg mL^−1). Overexpression of the mutant proteins was achieved by adding 0.1 mM of isopropyl-1-thio-β-D-galactopyranoside (IPTG) to the E. coli culture when its OD600 nm reached 0.8. The incubation of the induced culture was performed at 37° C. for 3 h with vigorous shaking at 250 rpm in a C25KC incubator shaker (New Brunswick Scientific, Edison, N.J.).
(§3) His6 (SEQ ID NO:34) tagged mutant proteins were purified from the cell lysate. To obtain the cell lysate, the cell pellet harvested by centrifugation at 4000 rpm for 2 h was resuspended in 20 mL (for cells obtained from one liter culture) of lysis buffer (pH 8.0, 100 mM Tris-HCl containing 0.1% Triton X-100). To lyse the cells, lysozyme (50 μg mL^−1) and DNaseI (3 μg mL^−1) were then added to the resuspended cells followed by shaking at 37° C. for 60 min. The cell lysate was obtained as the supernatant after centrifugation at 11,000 rpm for 20 min. […]
(§4) All the sialidase and α2-3-sialyltransferase assays were performed in an HPLC system. […] After necessary dilutions were performed to adjust the concentrations of the fluorescent-labeled compounds, the samples were then kept on ice until aliquots of 8 μL were injected and analyzed by a Shimadzu LC-6AD system equipped with a membrane on-line degasser, a temperature control unit, and a fluorescence detector (Shimadzu RF-10AXL). […] The fluorescent compounds LacβMU and Neu5Acα2-3LacβMU were detected by excitation at 325 nm and emission at 372 nm.

The target in assay [2] is Pasteurella multocida PmST1 mutant E271F of SEQ ID NO: 13 (E247F of Δ24PmST1, SEQ ID NO: 7) (Pasteurella multocida, UniProt Q15KI8, E271F). The assay is described as above. The format is biochemical. The conditions noted are these: apparent, MES pH 5.5, 37° C., 1 min. As for the experimental part: as §1, §2, §3, §4
In assay [3] the target is Pasteurella multocida PmST1 mutant R313Y of SEQ ID NO: 13 (R289Y of Δ24PmST1, SEQ ID NO: 9) (Pasteurella multocida, UniProt Q15KI8, R313Y). Described as above. The format is biochemical. The conditions noted are these: apparent, MES pH 5.5, 37° C., 25 min. The procedure:
as §1, §2, §3, §4

Assay [4] deals with Pasteurella multocida PmST1 mutant M144D of SEQ ID NO: 13 (M120D of Δ24PmST1, SEQ ID NO: 3) (Pasteurella multocida, UniProt Q15KI8, M144D). The assay is described as above. Conditions: apparent, MES pH 5.5, 37° C., 60 min. The format is biochemical. The procedure: (§5) Site-directed mutagenesis, expression and purification of PmST1 mutants. Site-directed mutagenesis was performed using the QuikChange multi-site-directed mutagenesis kit from Stratagene according to the manufacturer's protocol. The primers used were 5′-[…]-3′ (SEQ ID NO:35) for M144D; 5′-[…]a[…] -3′ (SEQ ID NO:36) for M144H; 5′-[…]-3′ (SEQ ID NO:37) for A35D; and 5′-[…]-3′ (SEQ ID NO:38) for A35H. The expression and purification of the mutants were performed as previously described for the WT PmST1 .
(§6) Kinetics of the α2-3-sialidase activity of PmST1 mutants. The reactions were performed in duplicate in a total volume of 10 μL at 37° C. for 60 min (M144D) or 15 min (M144H) in MES buffer (100 mM, pH 5.5) containing Neu5Acα2-3LacβMU (0.4, 1, 2, 4, 10, 20, 40 and 60 mM) and an enzyme (M144H, 1.36 mg mL^−1 or M144D, 1.05 mg mL^−1). Sample treatment after the reaction and analysis were carried out by HPLC similar to that described above for the α2-3-sialyltransferase assays.

Assay [5] concerns the target Pasteurella multocida PmST1 mutant M144H of SEQ ID NO: 13 (M120H of Δ24PmST1, SEQ ID NO: 5) (Pasteurella multocida, UniProt Q15KI8, M144H). The assay is described as above. The format is biochemical. Conditions: apparent, MES pH 5.5, 37° C., 15 min. The procedure:
as §5, §6

The target of assay [6] is Pasteurella multocida α2-3-sialyltransferase 1 (PmST1), wild type (WT), SEQ ID NO: 13 (Pasteurella multocida, UniProt Q15KI8). Conditions: apparent, α2-3-sialidase; cited from earlier work.
For assay [7], the target named is Pasteurella multocida PmST1 mutant D141A (Pasteurella multocida, UniProt Q15KI8, D141A). Nature of the assay: α2-3-sialidase activity, Neu5Acα2-3LacβMU as substrate. The format is biochemical. On the set-up: previously obtained mutant (Ni et al. 2006). The conditions noted are these: apparent, MES pH 5.5, 37° C., 60 min. The procedure: (§7) Kinetic Assays. […] The apparent kinetic parameters were obtained by fitting the experimental data (the average values of duplicate assay results) into the Michaelis-Menten equation using Grafit 5.0.
(§8) All the sialidase and α2-3-sialyltransferase assays were performed in an HPLC system. Reactions were stopped by adding 10 μL of ethanol. After necessary dilutions were performed to adjust the concentrations of the fluorescent-labeled compounds, the samples were then kept on ice until aliquots of 8 μL were injected and analyzed by a Shimadzu LC-6AD system equipped with a membrane on-line degasser, a temperature control unit, and a fluorescence detector (Shimadzu RF-10AXL). A reverse-phase Premier C18 column (250×4.6 mm i.d., 5 μm particle size, Shimadzu) protected with a C18 guard column cartridge was used. The mobile phase was 25% acetonitrile. The fluorescent compounds LacβMU and Neu5Acα2-3LacβMU were detected by excitation at 325 nm and emission at 372 nm.

Assay [8] has as its target Pasteurella multocida PmST1 mutant H311A (Pasteurella multocida, UniProt Q15KI8, H311A). The assay is described as above. Also noted: previously obtained mutant (Ni et al. 2006). Conditions: result in words. The format is biochemical. As for the experimental part:
as §7, §8

Each structure is given as a SMILES string.

`CC(=O)N[C@H]1[C@H]([C@H](O)[C@H](O)CO)O[C@@](O[C@H]2[C@@H](O)[C@@H](CO)O[C@@H](O[C@H]3[C@H](O)[C@@H](O)[C@H](Oc4ccc5c(C)cc(=O)oc5c4)O[C@@H]3CO)[C@@H]2O)(C(=O)O)C[C@@H]1O` [Neu5Acα2-3LacβMU]: the turnover number (kcat) is 0.83 ± 0.08 s⁻¹ in assay [1]; 0.92 ± 0.04 s⁻¹ in assay [2]; 0.18 ± 0.01 s⁻¹ in assay [3]; “(3.5 ± 0.1) × 10^−2 s^−1” in assay [4]; “(2.7 ± 0.2) × 10^−2 s^−1” in assay [5]; “(1.9 ± 0.1) × 10^−2 s^−1” in assay [7]. Moreover, the Km in assay [6] was 24 mM. The “kinetics of the α2-3-sialidase activity” value in assay [8] is listed as “too low to obtain the kinetic data”.

Broadly, the kcat is the maximal rate divided by the concentration of active sites. For orientation: Km means the substrate concentration at which the rate is half of its maximum.
